Test results from patent US8563013B2, “Systems and methods for delivering a fluid drug” (Janssen Biotech, Inc., priority 2007, dated 2013).

Test: Light-induced degradation of a carbidopa-containing fluid formulation
Format: physicochemical
Conditions: fluid formulation having carbidopa; visible light with wavelengths in the range of about 400 nm to about 550 nm
From the text: In some embodiments, the reservoir, and/or other portions of a dosing container, can be adapted to hinder exposure of a contained fluid from portions of a light spectrum, which can be capable of degrading or rendering one or more components of a fluid ineffective. […] Accordingly, if a container is adapted to hinder a carbidopa-containing fluid from being exposed to at least wavelengths in about the 400 nm to about 550 nm range, preservation of the carbidopa can be enhanced. As well, other embodiments can utilize other techniques, in combination or alone, which effectively reduce degradation of a carbidopa-containing fluid in the presence of visible light, such as adding a dye to the carbidopa-containing fluid (e.g., FD&C Yellow 6) to absorb the undesired light components. Other techniques, including ones familiar to those skilled in the art, can also be used.

Which “degradation on exposure to light” value does the source give for C[C@@](Cc1ccc(O)c(O)c1)(NN)C(=O)O [carbidopa] here?
Its value is “found to degrade”.
